Patent US20200270233A1, “DHFR INHIBITORS, COMPOSITIONS, AND METHODS RELATED THERETO” (Vyera Pharmaceuticais LLC, priority 2017, published 2020)
Like-named read-outs stand apart in the source and are kept apart here.

Legend:
[1] = target: T1, hDHFR (Homo sapiens, UniProt P00374); type: biochemical
T1 sequence (P00374 1-187): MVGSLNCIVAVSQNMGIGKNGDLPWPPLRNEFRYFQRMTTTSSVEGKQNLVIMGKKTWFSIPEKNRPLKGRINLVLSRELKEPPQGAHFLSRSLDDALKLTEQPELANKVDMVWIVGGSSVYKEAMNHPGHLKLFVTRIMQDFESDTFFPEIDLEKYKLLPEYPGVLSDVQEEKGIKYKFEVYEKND

[2] = target: T. cruzi DHFR (tcDHFR) (Trypanosoma cruzi, UniProt Q27793); assay: biochemical; details: for Average DHFR selectivity (h/tc): hDHFR IC50/tcDHFR IC50
T. cruzi DHFR (tcDHFR), sequence (Q27793 whole entry): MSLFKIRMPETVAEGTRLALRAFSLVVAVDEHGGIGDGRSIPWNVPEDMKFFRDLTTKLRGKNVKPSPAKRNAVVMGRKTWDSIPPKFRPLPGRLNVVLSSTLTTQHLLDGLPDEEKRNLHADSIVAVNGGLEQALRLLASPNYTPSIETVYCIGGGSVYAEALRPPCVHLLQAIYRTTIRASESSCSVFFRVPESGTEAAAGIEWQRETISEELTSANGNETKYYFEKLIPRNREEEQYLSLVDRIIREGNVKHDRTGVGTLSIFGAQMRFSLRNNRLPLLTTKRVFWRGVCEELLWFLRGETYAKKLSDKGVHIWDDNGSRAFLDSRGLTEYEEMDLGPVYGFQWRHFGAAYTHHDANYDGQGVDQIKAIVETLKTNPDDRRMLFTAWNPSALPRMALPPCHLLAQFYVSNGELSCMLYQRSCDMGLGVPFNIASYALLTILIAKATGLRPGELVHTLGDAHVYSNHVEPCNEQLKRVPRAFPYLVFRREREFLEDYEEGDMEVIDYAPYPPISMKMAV

[3] = target: T2, T. gondii DHFR (tgDHFR) (Toxoplasma gondii, UniProt Q07422); assay: biochemical; details: for Average DHFR selectivity (h/tg): hDHFR IC50/tgDHFR IC50
T2 sequence (Q07422 1-610): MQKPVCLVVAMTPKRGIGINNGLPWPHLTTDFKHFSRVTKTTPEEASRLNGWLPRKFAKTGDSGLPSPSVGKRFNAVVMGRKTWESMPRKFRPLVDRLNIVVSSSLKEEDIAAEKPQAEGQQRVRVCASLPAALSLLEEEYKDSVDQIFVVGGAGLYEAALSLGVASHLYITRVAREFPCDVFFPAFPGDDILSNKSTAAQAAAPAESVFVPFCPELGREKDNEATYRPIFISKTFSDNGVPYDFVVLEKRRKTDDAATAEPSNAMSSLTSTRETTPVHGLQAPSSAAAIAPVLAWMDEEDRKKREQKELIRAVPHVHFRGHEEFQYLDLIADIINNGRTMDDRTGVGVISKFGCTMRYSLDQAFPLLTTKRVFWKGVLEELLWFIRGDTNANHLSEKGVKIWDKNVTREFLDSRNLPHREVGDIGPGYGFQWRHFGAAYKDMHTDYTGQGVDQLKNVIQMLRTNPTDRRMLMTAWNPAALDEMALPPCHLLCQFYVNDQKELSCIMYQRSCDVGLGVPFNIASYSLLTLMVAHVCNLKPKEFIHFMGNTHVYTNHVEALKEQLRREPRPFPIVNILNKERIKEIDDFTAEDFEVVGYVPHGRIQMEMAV

[4] = Table 17, pIC50 = -log10 IC50, at least three replicates, read-out: hDHFR pIC50-DHFR primary assay (converted)
[5] = Table 17, pIC50 = -log10 IC50, at least three replicates, read-out: tcDHFR pIC50-DHFR primary assay (converted)
[6] = Table 16, pIC50 = -log10 IC50, at least three replicates, read-out: hDHFR pIC50-DHFR primary assay (converted)
[7] = Table 16, pIC50 = -log10 IC50, at least three replicates, read-out: tgDHFR pIC50-DHFR primary assay (converted)

Row | Structure (SMILES) | IC50 [1, 4] [nM] | Average DHFR selectivity (h/tc) ([2]; Table 17) | IC50 [2, 5] [nM] | other results
1 | Nc1ncc(N2CCN(c3ccc(F)nc3)CC2)c(N)n1 [Compound 156, 5-(4-(6-fluoropyridin-3-yl)piperazin-1-yl)pyrimidine-2,4-diamine] | 3720 | 60.75 | 61.7 | 
2 | Nc1ncc(N2CCN(c3ccccc3C3CCOCC3)CC2)c(N)n1 [Compound 175] | 13200 | 17.745 | 741 | IC50 [1, 6]: 13200 nM; Average DHFR selectivity (h/tg) ([3]; Table 16): 4.39; IC50 [3, 7]: 3020 nM
3 | N#Cc1ncc(-c2cccc(N3CCN(c4cnc(N)nc4N)CC3)c2)cn1 [Compound 168] | 452 | 60.24 | 7.5 | IC50 [1, 6]: 447 nM; Average DHFR selectivity (h/tg) ([3]; Table 16): 123.80; IC50 [3, 7]: 3.63 nM
4 | N#Cc1ccc(N2CCN(c3cnc(N)nc3N)CC2)cn1 [Compound 189, 5-(4-(2,4-diaminopyrimidin-5-yl)piperazin-1-yl)picolinonitrile] | 313 | 41.01 | 8.04 | IC50 [1, 6]: 309 nM; Average DHFR selectivity (h/tg) ([3]; Table 16): 1.39; IC50 [3, 7]: 224 nM
5 | Cc1ccc(N2CCN(c3cnc(N)nc3N)CC2)cn1 [Compound 146, 5-(4-(6-methylpyridin-3-yl)piperazin-1-yl)pyrimidine-2,4-diamine] | 7410 | 222.395 | 33.5 | 
6 | Nc1ncc(N2CCN(c3ccc(C(F)(F)F)cc3)CC2)c(N)n1 [Compound 115, 5-(4-(4-(trifluoromethyl)phenyl)piperazin-1-yl)pyrimidine-2,4-diamine] |  |  |  | IC50 [1]: 813 nM; IC50 [2]: 6.17 nM
7 | Nc1ncc(N2CCN(c3ccc(C(F)(F)F)cn3)CC2)c(N)n1 [Compound 140, 5-(4-(5-(trifluoromethyl)pyridin-2-yl)piperazin-1-yl)pyrimidine-2,4-diamine] | 617 | 90.29 | 7 | 
8 | Nc1ncc(N2CCN(c3cnc(C(F)(F)F)nc3)CC2)c(N)n1 [Compound 142, 5-(4-(2-(trifluoromethyl)pyrimidin-5-yl)piperazin-1-yl)pyrimidine-2,4-diamine] | 7630 | 206.5 | 38.5 | 
9 | Nc1ncc(N2CCN(c3cccc(Cl)n3)CC2)c(N)n1 [Compound 150, 5-(4-(6-chloropyridin-2-yl)piperazin-1-yl)pyrimidine-2,4-diamine] | 653 | 59.955 | 10.8 | 
10 | COc1ccc(N2CCN(c3cnc(N)nc3N)CC2)cn1 [Compound 188, 5-(4-(6-methoxypyridin-3-yl)piperazin-1-yl)pyrimidine-2,4-diamine] | 2690 | 209.762 | 14 | 
11 | Nc1ncc(N2CCN(c3ccc(C(F)(F)F)nc3)CC2)c(N)n1 [Compound 112] | 2040 |  |  | IC50 [2]: 5.62 nM
12 | COc1cccc(N2CCN(c3cnc(N)nc3N)CC2)c1 [Compound 9, 5-(4-(3-methoxyphenyl)piperazin-1-yl)pyrimidine-2,4-diamine] |  |  |  | IC50 [2]: 28.8 nM
13 | Nc1ncc(N2CCN(c3cncc(Br)c3)CC2)c(N)n1 [Compound 145, 5-(4-(5-bromopyridin-3-yl)piperazin-1-yl)pyrimidine-2,4-diamine] | 1170 | 56.7 | 21.6 | 
14 | CCc1nc(N)nc(N)c1-c1ccc(Cl)cc1 [pyrimethamine, reference compound] |  |  |  | IC50 [2]: 1000 nM
15 | Nc1ncc(N2CCN(c3ccc(F)cc3)CC2)c(N)n1 [Compound 116, 5-(4-(4-fluorophenyl)piperazin-1-yl)pyrimidine-2,4-diamine] | 5010 |  |  | IC50 [2]: 50.1 nM
16 | Nc1ncc(N2CCN(c3cc(Cl)ccn3)CC2)c(N)n1 [Compound 148, 5-(4-(4-chloropyridin-2-yl)piperazin-1-yl)pyrimidine-2,4-diamine] | 2190 | 94.81 | 22.9 | 
17 | Nc1ncc(N2CCN(c3ccc(Cl)cn3)CC2)c(N)n1 [Compound 149, 5-(4-(5-chloropyridin-2-yl)piperazin-1-yl)pyrimidine-2,4-diamine] | 1970 | 122.69 | 16.2 | 
18 | Nc1ncc(N2CCN(c3cc(Cl)ccc3F)CC2)c(N)n1 [Compound 144, 5-(4-(5-chloro-2-fluorophenyl)piperazin-1-yl)pyrimidine-2,4-diamine] | 8610 | 52.69 | 170 | 

Row | Structure (SMILES) | IC50 [1, 4] [nM] | Average DHFR selectivity (h/tc) ([2]; Table 17) | IC50 [2, 5] [nM] | other results
19 | COc1ccc(N2CCN(c3cnc(N)nc3N)CC2)cc1 [Compound 114, 5-(4-(4-methoxyphenyl)piperazin-1-yl)pyrimidine-2,4-diamine] | 813 |  |  | IC50 [2]: 5.62 nM
20 | Nc1ncc(N2CCN(c3ccnc(Cl)c3)CC2)c(N)n1 [Compound 147, 5-(4-(2-chloropyridin-4-yl)piperazin-1-yl)pyrimidine-2,4-diamine] | 180 | 24.92 | 7.41 | 
21 | Nc1ncc(N2CCN(c3ccc(Cl)nc3)CC2)c(N)n1 [Compound 141, 5-(4-(6-chloropyridin-3-yl)piperazin-1-yl)pyrimidine-2,4-diamine] | 417 | 67.2 | 6.31 | 
22 | Cc1nc(N)nc(N)c1N1CCN(c2cccc(Cl)c2)CC1 [Compound 46, 5-(4-(3-chlorophenyl)piperazin-1-yl)-6-methylpyrimidine-2,4-diamine] |  |  |  | IC50 [1]: 240 nM; IC50 [3]: 8.13 nM; Average DHFR selectivity (h/tg) ([3]; Table 16): 29.68
23 | CCCc1nc(N)nc(N)c1N1CCN(c2ccccn2)CC1 [Compound 56, 6-propyl-5-(4-(pyridin-2-yl)piperazin-1-yl)pyrimidine-2,4-diamine] |  |  |  | IC50 [1, 6]: 6760 nM; IC50 [3]: 25.7 nM
24 | Nc1ncc(N2CCC(c3ccccc3)CC2)c(N)n1 [Compound 15, 5-(4-phenylpiperidin-1-yl)pyrimidine-2,4-diamine] |  |  |  | IC50 [1, 6]: 4070 nM; IC50 [3]: 162 nM
25 | Nc1ncc(N2CCN(c3ccc(C4=CCOCC4)cc3)CC2)c(N)n1 [Compound 191, 5-(4-(4-(3,6-dihydro-2H-pyran-4-yl)phenyl)piperazin-1-yl)pyrimidine-2,4-diamine] | 68.4 | 25.16 | 2.82 | 
26 | Cc1ccc(N2CCN(c3cnc(N)nc3N)CC2)cc1 [Compound 8, 5-(4-(p-tolyl)piperazin-1-yl)pyrimidine-2,4-diamine] |  |  |  | IC50 [2]: 18.2 nM
27 | CN(Cc1cnc2nc(N)nc(N)c2n1)c1ccc(C(=O)N[C@@H](CCC(=O)O)C(=O)O)cc1 [Methotrexate] |  |  |  | IC50 [2]: 1.1 nM
28 | Nc1ncc(N2CCN(c3cccc(C4CCCOC4)c3)CC2)c(N)n1 (stereo not drawn) [Compound 179] | 484 | 17.495 | 28.8 | 
29 | CCCc1nc(N)nc(N)c1N1CCN(c2ccc(F)cc2)CC1 [Compound 52, 5-(4-(4-fluorophenyl)piperazin-1-yl)-6-propylpyrimidine-2,4-diamine] |  |  |  | IC50 [1, 6]: 10000 nM; IC50 [3]: 33.1 nM
30 | Nc1ncc(N2CCN(c3cccc(-c4ccncn4)c3)CC2)c(N)n1 [Compound 102, 5-(4-(3-(pyrimidin-4-yl)phenyl)piperazin-1-yl)pyrimidine-2,4-diamine] | 1660 |  |  | IC50 [2]: 15.8 nM
31 | CCc1nc(N)nc(N)c1N1CCN(c2ccc(F)cn2)CC1 [Compound 44, 6-ethyl-5-(4-(5-fluoropyridin-2-yl)piperazin-1-yl)pyrimidine-2,4-diamine] |  |  |  | IC50 [1, 6]: 295 nM; IC50 [3]: 4.17 nM
32 | COc1ncc(-c2ccnc(N3CCN(c4cnc(N)nc4N)CC3)c2)cn1 [Compound 165] |  |  |  | IC50 [1, 6]: 355 nM; Average DHFR selectivity (h/tg) ([3]; Table 16): 82.03; IC50 [3, 7]: 4.37 nM
33 | COc1ncc(-c2cc(F)cc(N3CCN(c4cnc(N)nc4N)CC3)c2)cn1 [Compound 161] |  |  |  | IC50 [1, 6]: 138 nM; Average DHFR selectivity (h/tg) ([3]; Table 16): 51.27; IC50 [3, 7]: 2.69 nM
34 | Nc1ncc(N2CCN(c3ccc(F)c(Cl)c3)CC2)c(N)n1 [Compound 143, 5-(4-(3-chloro-4-fluorophenyl)piperazin-1-yl)pyrimidine-2,4-diamine] | 684 | 41.735 | 16.6 | 
35 | CC1CN(c2cnc(N)nc2N)CCN1c1cccc(-c2ccccc2)c1 (stereo not drawn) [Compound 26, 5-(4-([1,1′-biphenyl]-3-yl)-3-methylpiperazin-1-yl)pyrimidine-2,4-diamine] |  |  |  | IC50 [1, 6]: 30.2 nM; IC50 [3]: 2 nM
